Test results: patent publication EP0598011B1, “ECDYSTEROID DEPENDENT REGULATION OF GENES IN MAMMALIAN CELLS” (GENENTECH, INC., priority 1991, dated 1993)

Tests used:
Format in all cases: cell-based
EcEcEc [1] = biological target: T1, EcEcEc (Drosophila melanogaster, UniProt P34021); test: Lex-operator reporter X4C-33CO with EcEcEc (DHR23α); set-up: To isolate the full-length DHR23α clones; expressed in transfected cells; conditions: receptor EcEcEc, SD in parentheses
Excerpt: (§1) Such fusion constructs are expected to be useful in regulating the expression of exogenous genes introduced into transgenic mammals or mammalian cells. I next determined if the DHR23α ligand-binding domain could be used to regulate the activity of a DNA-binding domain not normally expressed in mammalian cells. I constructed the chimeric gene GLxEc by replacing the sequences coding for the GR DNA-binding domain in the GGEc fusion with those encoding the DNA-binding domain of the Escherichia coli LexA repressor (J. W. Little and S. A. Hill, Proc. Natl. Acad. Sci. U.S.A. 82, 2301 [1985]) (Fig. 4). A reporter gene, X4C-33CO was constructed that contains 4 copies of a 26-bp lex operator (R. Brent and M. Ptashne, Nature 312, 612 [1984]) at position -33 of the CMV promoter. GLxEc had no effect on the expression of a OC-33CO, a reporter gene lacking the lex operator (Fig. 6B).
(§2) Illustrated in Table 2 is the transcriptional activation by receptor-LexA fusion proteins. Effector plasmids encoding the indicated receptor proteins were transfected with a reporter gene either containing (X4C-33CO) or lacking (OC-33CO) lex-operators. […] The cells were incubated either with (+) or without (-) muristerone A. The fold induction was determined as described previously; the standard deviations are shown in parenthesis.

GGEc = biological target: T2, GGEc (Drosophila melanogaster, UniProt P34021); test: Induction of GRE reporter G4M-77CO by chimeric receptor GGEc in 293 cells; conditions: for fold induction: 293 cells, reporter G4M-77CO, normalized to hGH, SD in parentheses
T2 construct: expressed in transfected cells; host or cells: 293 cells
T2 sequence (P34021 329-878): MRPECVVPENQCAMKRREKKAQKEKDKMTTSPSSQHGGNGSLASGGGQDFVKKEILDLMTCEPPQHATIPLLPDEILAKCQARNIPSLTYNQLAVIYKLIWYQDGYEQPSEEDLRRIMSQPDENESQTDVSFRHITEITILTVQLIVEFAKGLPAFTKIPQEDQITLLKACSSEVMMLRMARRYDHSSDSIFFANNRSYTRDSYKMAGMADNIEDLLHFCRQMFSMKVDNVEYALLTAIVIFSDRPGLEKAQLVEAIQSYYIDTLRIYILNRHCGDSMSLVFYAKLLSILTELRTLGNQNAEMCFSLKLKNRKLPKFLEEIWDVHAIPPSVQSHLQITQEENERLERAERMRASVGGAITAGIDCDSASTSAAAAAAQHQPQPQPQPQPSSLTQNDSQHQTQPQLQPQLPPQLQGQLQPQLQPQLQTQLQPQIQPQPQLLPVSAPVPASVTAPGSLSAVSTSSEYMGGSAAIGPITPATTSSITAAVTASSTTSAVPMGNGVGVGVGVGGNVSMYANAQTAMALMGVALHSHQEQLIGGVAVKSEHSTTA
Excerpt: I choose to determine if the ligand-binding domain of DHR23a could be used to regulate the DNA-binding and transactivation domains of the mammalian glucocorticoid receptor for the following reasons. First, in contrast to DHR23α, high affinity DNA-binding sites for the GR have been identified (M. Beato, Cell 56, 335 [1989]) and reporter genes containing these sites are very strongly regulated. Thus, the sensitivity of our assays could be increased. Secondly, these chimeric receptors could be utilized to selectively regulate endogenous genes in mammalian cells in response to ecdysteroids. I constructed a chimeric gene, GGEc, in which the sequences encoding the ligand-binding domain of the GR were replaced with that of DHR23α (Fig. 4A). […] However, expression of the GRE-containing reporter gene was induced more than 700 fold by GGEc in muristerone-treated cells.

G"E"Ec = biological target: T3, G"E"Ec (UniProt P06536+P34021, G458E/S459G); test: Induction of ERE reporter E4M-77CO by chimeric receptor G"E"Ec; conditions: cells incubated 48 hrs
T3 construct: expressed in transfected cells
T3 sequence (P19793 whole entry): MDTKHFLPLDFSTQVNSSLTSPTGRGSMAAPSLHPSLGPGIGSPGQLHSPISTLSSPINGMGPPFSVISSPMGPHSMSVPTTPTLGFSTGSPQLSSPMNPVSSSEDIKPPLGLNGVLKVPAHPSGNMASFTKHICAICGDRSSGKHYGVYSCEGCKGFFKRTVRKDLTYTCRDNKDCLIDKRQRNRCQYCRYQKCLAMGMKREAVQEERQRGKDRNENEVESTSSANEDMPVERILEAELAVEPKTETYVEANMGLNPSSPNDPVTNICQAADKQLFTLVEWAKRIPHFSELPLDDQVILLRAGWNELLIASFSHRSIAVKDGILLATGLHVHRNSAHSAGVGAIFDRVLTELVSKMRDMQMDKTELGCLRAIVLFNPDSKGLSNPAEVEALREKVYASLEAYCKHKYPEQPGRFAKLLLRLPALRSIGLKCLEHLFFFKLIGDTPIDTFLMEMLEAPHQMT
T3 sequence (P06536+P34021 fused P06536:G458E/P06536:S459G): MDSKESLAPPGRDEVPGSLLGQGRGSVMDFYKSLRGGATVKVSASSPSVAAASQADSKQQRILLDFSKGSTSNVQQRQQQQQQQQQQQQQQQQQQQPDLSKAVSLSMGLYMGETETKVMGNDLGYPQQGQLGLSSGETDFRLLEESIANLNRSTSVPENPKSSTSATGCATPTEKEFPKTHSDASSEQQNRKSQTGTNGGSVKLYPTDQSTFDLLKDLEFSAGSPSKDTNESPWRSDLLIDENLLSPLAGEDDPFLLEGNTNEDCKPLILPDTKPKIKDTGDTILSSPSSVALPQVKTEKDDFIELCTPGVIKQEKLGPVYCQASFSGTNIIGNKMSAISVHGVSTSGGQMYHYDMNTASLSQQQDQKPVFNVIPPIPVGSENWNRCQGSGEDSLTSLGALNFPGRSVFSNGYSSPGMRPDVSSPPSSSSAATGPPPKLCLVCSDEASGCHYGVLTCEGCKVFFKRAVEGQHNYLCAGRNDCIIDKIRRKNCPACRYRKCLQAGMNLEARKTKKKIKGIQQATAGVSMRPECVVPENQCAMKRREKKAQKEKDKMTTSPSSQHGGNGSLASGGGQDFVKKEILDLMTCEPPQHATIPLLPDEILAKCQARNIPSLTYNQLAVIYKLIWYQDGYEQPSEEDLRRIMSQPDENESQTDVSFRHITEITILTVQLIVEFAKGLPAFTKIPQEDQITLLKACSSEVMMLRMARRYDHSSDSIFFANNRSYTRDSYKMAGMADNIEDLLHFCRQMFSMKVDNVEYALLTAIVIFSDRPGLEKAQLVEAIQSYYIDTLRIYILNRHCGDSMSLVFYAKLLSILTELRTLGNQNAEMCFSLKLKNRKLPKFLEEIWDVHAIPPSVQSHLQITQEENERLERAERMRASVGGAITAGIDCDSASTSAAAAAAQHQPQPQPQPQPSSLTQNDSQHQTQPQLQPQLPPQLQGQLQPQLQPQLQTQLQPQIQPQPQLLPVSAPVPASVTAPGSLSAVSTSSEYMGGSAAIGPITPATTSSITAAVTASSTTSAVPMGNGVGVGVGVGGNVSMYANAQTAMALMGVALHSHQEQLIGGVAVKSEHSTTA
Experimental: Figure. 6. Induction of […] (EREs) by chimeric receptors. Cells were transfected with expression plasmids encoding eiher DHR23α (EcEcEc), G"E"G or G"E"Ec and E4M-77CO, that contains 4 EREs fused to the MTV promoter. Cells were incubated for 48 hrs with or wihout (-) or with muristerone A (M) or dexamethasone (D).
I then determined if a DHR23 fusion protein could regulate genes normally responsive to estrogens.
Cells were transfected with expression plasmids encoding either DHR23α (EcEcEc), G"E"G or G"E"Ec and E4M-77CO, that contains 4 EREs fused to the MTV promoter. Cells were incubated for 48 hrs with or without (-) or with muristerone A (M) or dexamethasone (D). Reporter gene activity was determined as described above for Figure 2.

X4C-33CO = test: Lex-operator reporter X4C-33CO, control effector plasmid without receptor cDNA; conditions: SD in parentheses
Excerpt: as §1, §2

VGEc = biological target: T4, VGEc (Drosophila melanogaster, UniProt P34021); test: Induction of GRE reporter G4M-77CO by chimeric receptor VGEc in 293 cells; conditions: normalized to hGH, SD in parentheses
T4 construct: expressed in transfected cells; host or cells: 293 cells
T4 sequence (P34021 329-878): T2 sequence (P34021 329-878)
Excerpt: Finally, I determined if the activity of DHR23α fusion proteins could be further enhanced by inclusion of a potent viral transactivation domain. I constructed VGEc and VLxEc fusion genes by replacing a portion of the GR N-terminal activation domain in GGEc and GLxEc, respectively, with the herpes virus VP16 acidic activation domain (I. Sadowski et al., […]. 335, 563 [1988]; D. J. Cousens, R. Greaves, C. R. Coding, and P. O'Hare, EMBO J. 8, 2337 [1989]) (Fig. 4A). In transfected cells, these proteins accumulated to similar levels as derivatives lacking the VP16 activation domain (Fig. 4B). Both VGEc and VLxEc acted in an ecdysteroid-dependent fashion to induce activity of the appropriate reporter gene (Tables 1 and 2). However, the activity of VGEc and VLxEc was 5 and 10 fold greater than GGEc and GLxEc, respectively (M..A. Labow, S.B. Baim, T. Shenk, and A. J. Levine, Mol. and Cell. Biol. 10, 3343 [1990]). Thus, the DHR23α ligand-binding domain can be used to regulate the activities of viral, mammalian and bacterial DNA-binding or transactivation domains.

GXEc = biological target: T5, GXEc (Drosophila melanogaster, UniProt P34021); test: Lex-operator reporter X4C-33CO with GXEc; conditions: receptor GXEc, SD in parentheses
T5 construct: expressed in transfected cells
T5 sequence (P34021 329-878): T2 sequence (P34021 329-878)
Excerpt: as §1, §2

EcEcEc [2] = biological target: T1, EcEcEc; test: Induction of GRE reporter G4M-77CO by EcEcEc (DHR23α) in 293 cells; set-up: To isolate the full-length DHR23α clones; expressed in transfected cells; host or cells: human 293 cells; conditions: receptor EcEcEc, normalized to hGH, SD in parentheses, 2880 min
Experimental: "G" and "Ec" refer to the glucocorticoid receptor and DHR23α, respectively.
293 cells were transfected with effector plasmids encoding the indicated receptor proteins and the reporter gene G4M-77CO. These transfected cells were incubated either without added hormone (-), with muristerone A (M) or with dex (D).

T1 sequence (P19793 whole entry, the tested form may be a part): as the sequence (P19793 whole entry) above
T1 sequence (P34021 whole entry, the tested form may be a part): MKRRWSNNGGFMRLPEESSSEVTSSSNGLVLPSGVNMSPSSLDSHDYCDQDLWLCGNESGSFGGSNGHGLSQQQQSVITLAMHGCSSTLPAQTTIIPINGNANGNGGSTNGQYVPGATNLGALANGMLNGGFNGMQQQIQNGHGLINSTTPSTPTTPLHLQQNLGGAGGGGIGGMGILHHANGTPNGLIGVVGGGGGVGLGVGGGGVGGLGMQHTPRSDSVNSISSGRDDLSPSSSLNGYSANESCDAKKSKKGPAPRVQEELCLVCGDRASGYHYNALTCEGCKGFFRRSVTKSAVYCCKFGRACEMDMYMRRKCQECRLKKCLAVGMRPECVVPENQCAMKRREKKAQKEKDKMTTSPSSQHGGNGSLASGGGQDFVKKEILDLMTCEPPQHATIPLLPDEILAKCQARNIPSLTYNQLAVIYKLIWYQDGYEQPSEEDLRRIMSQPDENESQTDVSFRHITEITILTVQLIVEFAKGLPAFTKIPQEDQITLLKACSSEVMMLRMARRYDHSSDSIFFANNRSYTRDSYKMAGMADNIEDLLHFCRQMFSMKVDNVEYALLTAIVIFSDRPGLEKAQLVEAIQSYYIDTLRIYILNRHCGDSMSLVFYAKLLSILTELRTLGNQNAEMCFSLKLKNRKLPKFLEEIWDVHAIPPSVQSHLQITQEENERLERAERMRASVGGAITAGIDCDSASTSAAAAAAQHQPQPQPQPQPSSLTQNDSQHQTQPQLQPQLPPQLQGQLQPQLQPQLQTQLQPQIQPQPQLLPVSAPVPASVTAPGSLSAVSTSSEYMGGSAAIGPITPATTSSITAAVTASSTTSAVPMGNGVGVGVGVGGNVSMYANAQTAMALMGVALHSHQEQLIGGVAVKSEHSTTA

CC(C)CCC(O)[C@](C)(O)[C@H]1CC[C@@]2(O)C3=CC(=O)C4(O)CC(O)C(O)C[C@]4(C)[C@H]3C(O)C[C@]12C (stereo partly shown) [muristerone A, 2,3,5,11,14,20,22-Heptahydroxy-7-cholesten-6-one]
fold induction (EcEcEc [1]): 1.4 (0.1) fold | fold induction (EcEcEc [1]; listed as muristerone): not induced | fold induction (GGEc): more than 700 fold | fold induction (GGEc; listed as M): 798 (57) fold | relative efficacies of ecdysteroids as agonists for the chimeric receptor (GGEc; GRE reporter G4M-77CO): strong | regulation of ERE containing reporter gene E4M-77CO (G"E"Ec): regulates the ERE containing reporter gene E4M-77CO in a muristerone-dependent fashion | fold induction (X4C-33CO): 1.1 (0.3) fold | fold induction (VGEc): 3117 (240) fold | fold induction (GXEc): 44.3 (8.3) fold | fold induction (EcEcEc [2]): 0.9 (0.2) fold
